In patent US6472391B2, “Nitrogen-containing heterocyclic compounds” (Millennium Pharmaceuticals, Inc., priority 1996, dated 2002):

| Structure (SMILES) | melting point |
| --- | --- |
| COc1cc2ncnc(N3CCN(C(=S)Nc4ccc(OCc5ccccc5)cc4)CC3)c2cc1OC [Compound 63, N-(4-Benzyloxyphenyl)-4-(6,7-dimethoxy-4-quinazolinyl)-1-piperazinethiocarboxamide] | 103 to 105 °C |
| COc1ccc(NC(=O)N2CCN(c3ncnc4cc(OC)c(OC)cc34)CC2)c(OC)c1 [Compound 64, N-(2,4-Dimethoxyphenyl)-4-(6,7-dimethoxy-4-quinazolinyl)-1-piperazinecarboxamide] | 187 to 188 °C |
| COc1ccc(OC)c(NC(=O)N2CCN(c3ncnc4cc(OC)c(OC)cc34)CC2)c1 [Compound 65, N-(2,5-Dimethoxyphenyl)-4-(6,7-Dimethoxy-4-quinazolinyl)-1-piperazinecarboxamide] | 215 to 217 °C |
| COc1ccc(NC(=S)N2CCN(c3ncnc4cc(OC)c(OC)cc34)CC2)cc1OC [Compound 66, N-(3,4-Dimethoxyphenyl)-4-(6,7-dimethoxy-4-quinazolinyl)-1-piperazinethiocarboxamide] | 174 to 176 °C |
| COc1cc(NC(=S)N2CCN(c3ncnc4cc(OC)c(OC)cc34)CC2)cc(OC)c1 [Compound 67, N-(3,5-Dimethoxyphenyl)-4-(6,7-dimethoxy-4-quinazolinyl)-1-piperazinethiocarboxamide] | 240 to 241 °C |
| COc1cc2ncnc(N3CCN(C(=S)Nc4ccc5c(c4)OCO5)CC3)c2cc1OC [Compound 68, 4-(6,7-Dimethoxy-4-quinazolinyl)-N-(3,4-methylenedioxyphenyl)-1-piperazinethiocarboxamide] | 207 to 211 °C |
| COc1cc2ncnc(N3CCN(C(=O)Nc4ccc(SC)cc4)CC3)c2cc1OC [Compound 69, 4-(6,7-dimethoxy-4-quinazolinyl)-N-(4-methylthiophenyl)-1-piperazinecarboxamide] | 231 to 233 °C |
| COc1cc2ncnc(N3CCN(C(=S)Nc4ccc(Sc5ccc([N+](=O)[O-])cc5)cc4)CC3)c2cc1OC [Compound 70, 4-(6,7-Dimethoxy-4-quinazolinyl)-N-[4-(4-nitrophenylthio)phenyl]-1-piperazinethiocarboxamide] | 144 to 146 °C |
| CCN(CC)c1ccc(NC(=S)N2CCN(c3ncnc4cc(OC)c(OC)cc34)CC2)cc1 [Compound 72, N-(4-Diethylaminophenyl)-4-(6,7-dimethoxy-4-quinazolinyl)-1-piperazinethiocarboxamide] | 147 to 148 °C |
| COc1cc2ncnc(N3CCN(C(=S)Nc4ccc(N=Nc5ccc(N(C)C)cc5)cc4)CC3)c2cc1OC [Compound 74, 4-(6,7-Dimethoxy-4-quinazolinyl)-N-[4-(4-dimethylaminophenylazo)phenyl]-1-piperazinethiocarboxamide] | 148 to 149 °C |
| COc1cc2ncnc(N3CCN(C(=O)Nc4ccccc4[N+](=O)[O-])CC3)c2cc1OC [Compound 75, 4-(6,7-Dimethoxy-4-quinazolinyl)-N-(2-nitrophenyl)-1-piperazinecarboxamide] | 217 to 218 °C |
| COc1cc2ncnc(N3CCN(C(=O)Nc4cccc([N+](=O)[O-])c4)CC3)c2cc1OC [Compound 76, 4-(6,7-Dimethoxy-4-quinazolinyl)-N-(3-nitrophenyl)-1-piperazinecarboxamide] | 123 to 125 °C |
| COc1cc2ncnc(N3CCN(C(=S)Nc4ccc([N+](=O)[O-])cc4)CC3)c2cc1OC [Compound 80, 4-(6,7-Dimethoxy-4-quinazolinyl)-N-(4-nitrophenyl)-1-piperazinethiocarboxamide] | 221 to 224 °C |
| COc1cc2ncnc(N3CCN(C(=O)Nc4ccc(F)c([N+](=O)[O-])c4)CC3)c2cc1OC [Compound 81, 4-(6,7-Dimethoxy-4-quinazolinyl)-N-(4-fluoro-3-nitrophenyl)-1-piperazinecarboxamide] | 243 to 245 °C |
| COc1cc2ncnc(N3CCN(C(=O)Nc4ccc([N+](=O)[O-])cc4Cl)CC3)c2cc1OC [Compound 82, N-(2-Chloro-4-nitrophenyl)-4-(6,7-dimethoxy-4-quinazolinyl)-1-piperazinecarboxamide] | 194 to 195 °C |
| CCCCOC(=O)c1ccc(NC(=O)N2CCN(c3ncnc4cc(OC)c(OC)cc34)CC2)cc1 [Compound 90, N-(4-Butoxycarbonylphenyl)-4-(6,7-dimethoxy-4-quinazolinyl)-1-piperazinecarboxamide] | 226 to 227 °C |

Results, then the compound that gave them:

| melting point | Structure (SMILES) |
| --- | --- |
| 253 to 255 °C | COc1cc2ncnc(N3CCN(C(=O)Nc4ccc(Cl)c([N+](=O)[O-])c4)CC3)c2cc1OC [Compound 83, N-(4-Chloro-3-nitrophenyl)-4-(6,7-dimethoxy-4-quinazolinyl)-1-piperazinecarboxamide] |
| 240 to 244 °C | COc1cc2ncnc(N3CCN(C(=O)Nc4cccc(C#N)c4)CC3)c2cc1OC [Compound 84, N-(3-Cyanophenyl)-4-(6,7-dimethoxy-4-quinazolinyl)-1-piperazinecarboxamide] |
| 247 to 252 °C | COc1cc2ncnc(N3CCN(C(=S)Nc4ccc(C#N)cc4)CC3)c2cc1OC [Compound 85, N-(4-Cyanophenyl)-4-(6,7-dimethoxy-4-quinazolinyl)-1-piperazinethiocarboxamide] |
| 241 to 245 °C | COc1cc2ncnc(N3CCN(C(=O)Nc4cccc(C(C)=O)c4)CC3)c2cc1OC [Compound 86, N-(3-Acetylphenyl)-4-(6,7-dimethoxy-4-quinazolinyl)-1-piperazinecarboxamide] |
| 220 to 222 °C | COc1cc2ncnc(N3CCN(C(=O)Nc4ccc(C(C)=O)cc4)CC3)c2cc1OC [Compound 87, N-(4-acetylphenyl)-4-(6,7-dimethoxy-4-quinazolinyl)-1-piperazinecarboxamide] |
| 222 to 223 °C | COc1cc2ncnc(N3CCN(C(=S)Nc4ccc(C(=O)c5ccccc5)cc4)CC3)c2cc1OC [Compound 88, N-(4-Benzoylphenyl)-4-(6,7-dimethoxy-4-quinazolinyl)-1-piperazinethiocarboxamide] |
| 242 to 246 °C | CCOC(=O)c1ccc(NC(=O)N2CCN(c3ncnc4cc(OC)c(OC)cc34)CC2)cc1 [Compound 89, 4-(6,7-dimethoxy-4-quinazolinyl)-N-(4-ethoxycarbonylphenyl)-1-piperazinecarboxamide] |
| 252 to 253 °C | COC(=O)c1cc(NC(=O)N2CCN(c3ncnc4cc(OC)c(OC)cc34)CC2)cc(C(=O)OC)c1 [Compound 91, N-[3,5-Bis(methoxycarbonyl)phenyl]-4-(6,7-dimethoxy-4-quinazolinyl)-1-piperazinecarboxamide] |
| 172 to 180 °C | COc1cc2ncnc(N3CCN(C(=S)Nc4ccc(S(N)(=O)=O)cc4)CC3)c2cc1OC [Compound 93, 4-(6,7-Dimethoxy-4-quinazolinyl)-N-(4-sulfamoylphenyl)-1-piperazinethiocarboxamide] |
| 189 to 190 °C | COc1cc2ncnc(N3CCN(C(=S)NCc4ccco4)CC3)c2cc1OC [Compound 94, 4-(6,7-Dimethoxy-4-quinazolinyl)-N-furfuryl-1-piperazinethiocarboxamide] |
| 187 to 189 °C | COc1cc2ncnc(N3CCN(C(=S)NC(=O)c4ccco4)CC3)c2cc1OC [Compound 95, 4-(6,7-Dimethoxy-4-quinazolinyl)-N-(2-furoyl)-1-piperazinethiocarboxamide] |
| 184 to 185 °C | COc1cc2ncnc(N3CCN(C(=O)NCCc4cccs4)CC3)c2cc1OC [Compound 96, 4-(6,7-Dimethoxy-4-quinazolinyl)-N-[2-(2-thienyl)ethyl]-1-piperazinecarboxamide] |
| 169 to 171 °C | COc1cc2ncnc(N3CCN(C(=S)Nc4cccnc4)CC3)c2cc1OC [Compound 97, 4-(6,7-Dimethoxy-4-quinazolinyl)-N-(3-pyridyl)-1-piperazinethiocarboxamide] |
| 153 to 155 °C | COc1cc2ncnc(N3CCN(C(=S)Nc4ccc5c(O)nnc(O)c5c4)CC3)c2cc1OC [Compound 99, N-(1,4-Dihydroxy-6-phthalazinyl)-4-(6,7-dimethoxy-4-quinazolinyl)-1-piperazinethiocarboxamide] |
| 122 to 123 °C | COc1cc2ncnc(N3CCN(C(=O)Nc4ccc(CN5CCCCC5)cc4)CC3)c2cc1OC [Compound 100, 4-(6,7-Dimethoxy-4-quinazolinyl)-N-[4-(piperidinomethyl)phenyl]-1-piperazinecarboxamide] |
| 155 to 158 °C | O=C(Nc1ccc([N+](=O)[O-])cc1)N1CCN(c2ncnc3ccccc23)CC1 [Compound 103, N-(4-Nitrophenyl)-4-(4-quinazolinyl)-1-piperazinecarboxamide] |
| 74 to 75 °C | O=C(Nc1ccc(Oc2ccccc2)cc1)N1CCN(c2ncnc3ccccc23)CC1 [Compound 104, N-(4-Phenoxyphenyl)-4-(4-quinazolinyl)-1-piperazinecarboxamide] |
| 187 to 190 °C | CCOc1cc2ncnc(N3CCN(C(=O)Nc4ccc(Oc5ccccc5)cc4)CC3)c2cc1OCC [Compound 106, 4-(6,7-Diethoxy-4-quinazolinyl)-N-(4-phenoxyphenyl)-1-piperazinecarboxamide] |
| 197 to 199 °C | COc1cc2c(N3CCN(C(=O)Nc4ccc([N+](=O)[O-])cc4)CC3)ncnc2c(OC)c1OC [Compound 107, N-(4-Nitrophenyl)-4-(6,7,8-trimethoxy-4-quinazolinyl)-1-piperazinecarboxamide] |
| 83 to 84 °C | COc1cc2c(N3CCN(C(=O)Nc4ccc(Oc5ccccc5)cc4)CC3)ncnc2c(OC)c1OC [Compound 108, N-(4-Phenoxyphenyl)-4-(6,7,8-trimethoxy-4-quinazolinyl)-1-piperazinecarboxamide] |
| 242 to 244 °C | CCNc1cc2ncnc(N3CCN(C(=O)Nc4ccc(Oc5ccccc5)cc4)CC3)c2cc1[N+](=O)[O-] [Compound 109, 4-(7-Ethylamino-6-nitro-4-quinazolinyl)-N-(4-phenoxyphenyl)-1-piperazinecarboxamide] |
| 236 to 238 °C | O=C(Nc1ccc([N+](=O)[O-])cc1)N1CCN(c2nc(-c3ccccc3)nc3ccccc23)CC1 [Compound 110, 4-(2-Phenyl-4-quinazolinyl)-N-(4-nitrophenyl)-1-piperazinecarboxamide] |
